We go through two compounds from publication PMC10821064, “Mode of Antibacterial Action of Tomatidine C3-Diastereoisomers” (Molecules, 2024).

The target in this assay is T1, ATP synthase subunit c (Escherichia coli, UniProt P68699).
T1 construct: gene atpE; native ATP synthase in membrane vesicles of E. coli ATCC 25922; with whole ATP synthase complex
Description: inhibition of NADH-driven ATP synthesis in E. coli membrane vesicles, luminescence (ATPlite), Dixon-type Ki. It is filed as biochemical. The note with it: read-out: Ki (μM) In Vitro.

SMILES strings stand for the structures.

T1 sequence (P68699 whole entry): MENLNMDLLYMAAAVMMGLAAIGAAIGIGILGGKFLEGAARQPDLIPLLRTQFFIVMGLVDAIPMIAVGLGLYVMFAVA

One may read the Ki as a dissociation constant, usually derived from enzyme kinetics or from competition with a known ligand. Regarding `C[C@H]1CCC2(NC1)O[C@H]1C[C@H]3[C@@H]4CCC5C[C@@H](NCCN)CC[C@]5(C)[C@H]4CC[C@]3(C)[C@H]1[C@@H]2C` (some centres unmarked) [TM-02], the Ki came to 1.1 µM.

Regarding `C[C@H]1CCC2(NC1)O[C@H]1C[C@H]3[C@@H]4CCC5C[C@H](NCCN)CC[C@]5(C)[C@H]4CC[C@]3(C)[C@H]1[C@@H]2C` (some centres unmarked) [TM-03], the inhibition constant Ki is 3.5 µM.
